Results published in patent publication US20230303561A1, “PYRIMIDINONE DERIVATIVE, PREPARATION METHOD THEREOF AND USE THEREOF IN RESISTING MYCOBACTERIUM TUBERCULOSIS INFECTION” (INSTITUTE OF MEDICINAL BIOTECHNOLOGY, CHINESE ACADEMY OF …, priority 2020, published 2023).
In brackets after ≈: the same amount, converted by molar mass.

These molecules were tested on MTB H37Rv (assay: Bacteriostasis experiment: MIC in 96-well plate, two-fold dilution method). Conditions: MTB H37Rv (ATCC 27294), 7H9 medium, 37° C., about 10 days.
Type: cell-based, Mycobacterium tuberculosis

Row | Compound | Inhibitory activity against Mycobacterium tuberculosis, MIC, MTB H37Rv [µg/mL]
1 | CCCSc1nc2c(c(=O)[nH]1)C(c1ccc3occc3c1)CC(=O)N2 (stereo not shown) [LSL-11-17, 2-propylmercapto-5-(benzofuran-5-yl)-5,6-dihydropyrido[2,3-d]pyrimidin-4,7(3H,8H)-dione] | 4
2 | CCCSc1nc2c(c(=O)[nH]1)C(c1ccoc1)CC(=O)N2 (stereo not shown) [LSL-11-38, 2-propylmercapto-5-(furan-3-y1)-5,6-dihydropyrido[2,3-d]pyrimidin-4,7(3H,8H)-dione] | 1

Same assay, conditions: MTB H37Rv, statement on Table 1 data

Row | Compound | anti-mycobacterium tuberculosis MIC compared with the positive control drug INH
3 | CCCSc1nc2c(c(=O)[nH]1)C(c1ccc(O)c([N+](=O)[O-])c1)CC(=O)N2 (stereo not shown) [LSL-10-04, 2-propylmercapto-5-(4-hydroxy-3-nitrophenyl)-5,6-dihydropyrido[2,3-d]pyrimidin-4,7(3H,8H)-dione] | equivalent to that of the positive control drug INH
4 | CCCSc1nc2nccc(-c3ccc(OC)cc3)c2c(=O)[nH]1 [LSL-11-02, 2-propylmercapto-5-(4-methoxyphenyl)-pyrido[2,3-d]pyrimidin-4(3H)-one] | equivalent to that of the positive control drug INH
5 | CCCSc1nc2nccc(-c3ccc4ncccc4c3)c2c(=O)[nH]1 [LSL-11-08, 2-propylmercapto-5-(quinolin-6-yl)-pyrido[2,3-d]pyrimidin-4(3H)-one] | equivalent to that of the positive control drug INH
6 | CCCSc1nc2[nH]c(=O)cc(-c3ccc(OC)cc3)c2c(=O)[nH]1 [LSL-11-09, 2-propylmercapto-5-(4-methoxyphenyl)-pyrido[2,3-d]pyrimidin-4,7(3H,8H)-dione] | equivalent to that of the positive control drug INH
7 | CCCSc1nc2c(c(=O)[nH]1)C(c1ccc(SC)cc1)CC(=O)N2 (stereo not shown) [LSL-11-21, 2-propylmercapto-5-(4-methylthiophenyl)-5,6-dihydropyrido[2,3-d]pyrimidin-4,7(3H,8H)-dione] | equivalent to that of the positive control drug INH
8 | CCCCCCCOc1ccc(C2CC(=O)Nc3nc(SCCC)[nH]c(=O)c32)cc1 (stereo not shown) [LSL-11-39, 2-propylmercapto-5-(4-heptoxyphenyl)-5,6-dihydropyrido[2,3-d]pyrimidin-4,7(3H,8H)-dione] | equivalent to that of the positive control drug INH

Same assay, conditions: Mycobacterium tuberculosis, ATCC 27294 / H37Rv, 240 h, MTB H37Rv (ATCC 27294), 7H9 medium, 37° C., about 10 days; read-out: Inhibitory activity against Mycobacterium tuberculosis, MIC, MTB H37Rv

Row | Compound | MIC [µg/mL]
9 | CCCSc1nc2c(c(=O)[nH]1)C(c1ccc(C#N)cc1)CC(=O)N2 (stereo not shown) [LSL-10-01, 2-propylmercapto-5-(4-cyanophenyl)-5,6-dihydropyrido[2,3-d]pyrimidin-4,7(3H,8H)-dione] | 16 (≈ 47 µM)
10 | CCCSc1nc2c(c(=O)[nH]1)C(c1cccc(C#N)c1)CC(=O)N2 (stereo not shown) [LSL-10-02, 2-propylmercapto-5-(3-cyanophenyl)-5,6-dihydropyrido[2,3-d]pyrimidin-4,7(3H,8H)-dione] | 6 (≈ 17.6 µM)
11 | CCCSc1nc2c(c(=O)[nH]1)C(c1ccccc1[N+](=O)[O-])CC(=O)N2 (stereo not shown) [LSL-10-03, 2-propylmercapto-5-(2-nitrophenyl)-5,6-dihydropyrido[2,3-d]pyrimidin-4,7(3H,8H)-dione] | 8 (≈ 22.2 µM)
12 | CCCSc1nc2c(c(=O)[nH]1)C(c1ccc(O)c([N+](=O)[O-])c1)CC(=O)N2 (stereo not shown) [LSL-10-04, 2-propylmercapto-5-(4-hydroxy-3-nitrophenyl)-5,6-dihydropyrido[2,3-d]pyrimidin-4,7(3H,8H)-dione] | 0.625 (≈ 1.66 µM)
13 | CCCSc1nc2c(c(=O)[nH]1)C(c1ccccc1)CC(=O)N2 (stereo not shown) [LSL-10-05, 2-propylmercapto-5-phenyl-5,6-dihydropyrido[2,3-d]pyrimidin-4,7(3H,8H)-dione] | 8 (≈ 25.4 µM)
14 | CCCSc1nc2c(c(=O)[nH]1)C(c1ccnc3ccccc13)CC(=O)N2 (stereo not shown) [LSL-10-06, 2-propylmercapto-5-(quinolin-4-yl)-5,6-dihydropyrido[2,3-d]pyrimidin-4,7(3H,8H)-dione] | 4 (≈ 10.9 µM)
15 | CCCSc1nc2c(c(=O)[nH]1)C(c1cccc3ncccc13)CC(=O)N2 (stereo not shown) [LSL-10-07, 2-propylmercapto-5-(quinolin-5-yl)-5,6-dihydropyrido[2,3-d]pyrimidin-4,7(3H,8H)-dione] | 16 (≈ 43.7 µM)
16 | CCCCSc1nc2c(c(=O)[nH]1)C(c1ccc(OCCC)cc1)CC(=O)N2 (stereo not shown) [LSL-10-23, 2-butylmercapto-5-(4-propoxyphenyl)-5,6-dihydropyrido[2,3-d]pyrimidin-4,7(3H,8H)-dione] | 16 (≈ 41.3 µM)
17 | CCCSc1nc2c(c(=O)[nH]1)C(c1ccc(N3CCOCC3)cc1)CC(=O)N2 (stereo not shown) [LSL-10-43, 2-propylmercapto-5-(4-morpholinophenyl)-5,6-dihydropyrido[2,3-d]pyrimidin-4,7(3H,8H)-dione] | 1 (≈ 2.5 µM)
18 | CCCSc1nc2c(c(=O)[nH]1)C(c1ccc(N3CCCCC3)cc1)CC(=O)N2 (stereo not shown) [LSL-10-48, 2-propylmercapto-5-(4-(piperidin-1-yl)phenyl)-5,6-dihydropyrido[2,3-d]pyrimidin-4,7(3H,8H)-dione] | 2 (≈ 5.02 µM)
19 | CCCSc1nc2c(c(=O)[nH]1)C(c1ccc(N3CCSCC3)cc1)CC(=O)N2 (stereo not shown) [LSL-10-50, 2-propylmercapto-5-(4-thiomorpholinophenyl)-5,6-dihydropyrido[2,3-d]pyrimidin-4,7(3H,8H)-dione] | 1 (≈ 2.4 µM)
20 | CCCSc1nc2nccc(-c3ccc(OC)cc3)c2c(=O)[nH]1 [LSL-11-02, 2-propylmercapto-5-(4-methoxyphenyl)-pyrido[2,3-d]pyrimidin-4(3H)-one] | 0.5 (≈ 1.53 µM)
21 | CCCSc1nc2nccc(-c3ccc4ncccc4c3)c2c(=O)[nH]1 [LSL-11-08, 2-propylmercapto-5-(quinolin-6-yl)-pyrido[2,3-d]pyrimidin-4(3H)-one] | 0.25 (≈ 0.718 µM)
22 | CCCSc1nc2[nH]c(=O)cc(-c3ccc(OC)cc3)c2c(=O)[nH]1 [LSL-11-09, 2-propylmercapto-5-(4-methoxyphenyl)-pyrido[2,3-d]pyrimidin-4,7(3H,8H)-dione] | 0.25 (≈ 0.728 µM)
23 | CCCSc1nc2c(c(=O)[nH]1)C(c1nc3ccccc3s1)CC(=O)N2 (stereo not shown) [LSL-11-18, 2-propylmercapto-5-(benzothiazol-2-yl)-5,6-dihydropyrido[2,3-d]pyrimidin-4,7(3H,8H)-dione] | 2 (≈ 5.37 µM)
24 | CCCSc1nc2c(c(=O)[nH]1)C(c1ccc(Sc3ccccc3)cc1)CC(=O)N2 (stereo not shown) [LSL-11-19, 2-propylmercapto-5-(4-phenylthiophenyl)-5,6-dihydropyrido[2,3-d]pyrimidin-4,7(3H,8H)-dione] | 8 (≈ 18.9 µM)

Row | Compound | MIC [µg/mL]
25 | CCCSc1nc2c(c(=O)[nH]1)C(c1ccc(S(C)(=O)=O)cc1)CC(=O)N2 (stereo not shown) [LSL-11-20, 2-propylmercapto-5-(4-methanesulfonylphenyl)-5,6-dihydropyrido[2,3-d]pyrimidin-4,7(3H,8H)-dione] | 1 (≈ 2.54 µM)
26 | CCCSc1nc2c(c(=O)[nH]1)C(c1ccc(SC)cc1)CC(=O)N2 (stereo not shown) [LSL-11-21, 2-propylmercapto-5-(4-methylthiophenyl)-5,6-dihydropyrido[2,3-d]pyrimidin-4,7(3H,8H)-dione] | 0.5 (≈ 1.38 µM)
27 | CCCSc1nc2c(c(=O)[nH]1)C(c1ccc(Br)c([N+](=O)[O-])c1)CC(=O)N2 (stereo not shown) [LSL-11-22, 2-propylmercapto-5-(3-nitro-4-bromophenyl)-5,6-dihydropyrido[2,3-d]pyrimidin-4,7(3H,8H)-dione] | 1 (≈ 2.28 µM)
28 | CCCSc1nc2c(c(=O)[nH]1)C(c1ccc(C(=O)O)cc1)CC(=O)N2 (stereo not shown) [LSL-11-24, 2-propylmercapto-5-(4-carboxyphenyl)-5,6-dihydropyrido[2,3-d]pyrimidin-4,7(3H,8H)-dione] | 2 (≈ 5.56 µM)
29 | CCCSc1nc2c(c(=O)[nH]1)C(c1ccc(Br)cc1[N+](=O)[O-])CC(=O)N2 (stereo not shown) [LSL-11-25, 2-propylmercapto-5-(2-nitro-4-bromophenyl)-5,6-dihydropyrido[2,3-d]pyrimidin-4,7(3H,8H)-dione] | 4 (≈ 9.11 µM)
30 | CCCSc1nc2c(c(=O)[nH]1)C(c1ccccn1)CC(=O)N2 (stereo not shown) [LSL-11-26, 2-propylmercapto-5-(pyridin-2-yl)-5,6-dihydropyrido[2,3-d]pyrimidin-4,7(3H,8H)-dione] | 2 (≈ 6.32 µM)
31 | CCCSc1nc2c(c(=O)[nH]1)C(c1ccc(OCC(C)C)cc1)CC(=O)N2 (stereo not shown) [LSL-11-27, 2-propylmercapto-5-(4-isobutoxyphenyl)-5,6-dihydropyrido[2,3-d]pyrimidin-4,7(3H,8H)-dione] | 1 (≈ 2.58 µM)
32 | CCCSc1nc2c(c(=O)[nH]1)C(c1cccnc1)CC(=O)N2 (stereo not shown) [LSL-11-28, 2-propylmercapto-5-(pyridin-3-yl)-5,6-dihydropyrido[2,3-d]pyrimidin-4,7(3H,8H)-dione] | 2 (≈ 6.32 µM)
33 | CCCSc1nc2c(c(=O)[nH]1)C(c1ccncc1)CC(=O)N2 (stereo not shown) [LSL-11-29, 2-propylmercapto-5-(pyridin-4-yl)-5,6-dihydropyrido[2,3-d]pyrimidin-4,7(3H,8H)-dione] | 8 (≈ 25.3 µM)
34 | CCCSc1nc2c(c(=O)[nH]1)C(C1CCCCC1)CC(=O)N2 (stereo not shown) [LSL-11-30, 2-propylmercapto-5-cyclohexyl-5,6-dihydropyrido[2,3-d]pyrimidin-4,7(3H,8H)-dione] | 16 (≈ 49.8 µM)
35 | CCCSc1nc2c(c(=O)[nH]1)C(C1CCCC1)CC(=O)N2 (stereo not shown) [LSL-11-31, 2-propylmercapto-5-cyclopentyl-5,6-dihydropyrido[2,3-d]pyrimidin-4,7(3H,8H)-dione] | 16 (≈ 52 µM)
36 | CCCSc1nc2c(c(=O)[nH]1)C(c1ccc3c(c1)CCO3)CC(=O)N2 (stereo not shown) [LSL-11-33, 2-propylmercapto-5-(2,3-dihydrobenzofuran-5-yl)-5,6-dihydropyrido[2,3-d]pyrimidin-4,7(3H,8H)-dione] | 2 (≈ 5.6 µM)
37 | CCCSc1nc2c(c(=O)[nH]1)C(c1ccc3nccnc3c1)CC(=O)N2 (stereo not shown) [LSL-11-34, 2-propylmercapto-5-(quinoxalin-6-yl)-5,6-dihydropyrido[2,3-d]pyrimidin-4,7(3H,8H)-dione] | 4 (≈ 10.9 µM)
38 | CCCSc1nc2c(c(=O)[nH]1)C(c1ccc(OC)nc1)CC(=O)N2 (stereo not shown) [LSL-11-35, 2-propylmercapto-5-(6-methoxypyridin-3-yl)-5,6-dihydropyrido[2,3-d]pyrimidin-4,7(3H,8H)-dione] | 1 (≈ 2.89 µM)
39 | CCCSc1nc2c(c(=O)[nH]1)C(c1cnc3ccccc3c1)CC(=O)N2 (stereo not shown) [LSL-11-36, 2-propylmercapto-5-(quinolin-3-yl)-5,6-dihydropyrido[2,3-d]pyrimidin-4,7(3H,8H)-dione] | 8 (≈ 21.8 µM)

Same assay, conditions: Mycobacterium tuberculosis, ATCC 27294 / H37Rv, 240 h, read-out: Inhibitory activity against Mycobacterium tuberculosis, MIC, MTB H37Rv

Row | Compound | MIC [µg/mL]
40 | CCCCCCCOc1ccc(C2CC(=O)Nc3nc(SCCC)[nH]c(=O)c32)cc1 (stereo not shown) [LSL-11-39, 2-propylmercapto-5-(4-heptoxyphenyl)-5,6-dihydropyrido[2,3-d]pyrimidin-4,7(3H,8H)-dione] | 0.625 (≈ 1.45 µM)
